According to patent publication US7572600B2, “Enzymatic activities in chemokine-mediated inflammation” (Chemocentryx, Inc., priority 2004, dated 2009):
Entries after “also recorded” stand apart in the source; their conditions may differ. Where no end group is shown, it is not given here.

How the values were obtained:
[1] = tested on: leukocytes (neutrophils); test: Leukocyte recruitment to skin after intradermal injection; format: in vivo; settings: 2 μg intradermally, c57Bl/6 and BALB/c mice, 6 hours
Method: Immunohistochemistry. BALB/c and c57Bl/6 mice were injected intradermally with 50 μl sterile saline with or without 2 μg SHAAGtide. 6 hours later, mice were euthanized and the skin surrounding the injection site was excised. After immersion in 10% neutral-buffered formalin for 18-24 hours, the skin biopsy was processed in graded alcohols and embedded in paraffin wax. 5 μm-wide sections were cut on a Leica microtome, transferred to glass slides, deparaffinized in xylenes, and hydrated through graded alcohols. The sections were either stained with hematoxylin and eosin (Sigma, St. Louis Mo.) or stained immunohistochemically for neutrophils as follows. The slides were immersed in Target Retrieval solution (Dako, Carpinteria Calif.) for 20 minutes at 90° C., rinsed with water and immersed in tris-buffered saline (TBS) containing 2% bovine serum albumin for 20 minutes. The sections were then exposed to rat anti-mouse neutrophil monoclonal antibody (Accurate Chemical and Scientific, Westbury N.Y.) or rat IgG2a isotype control antibody (BD Pharmingen, San Diego Calif.) for 1 hour, rinsed with TBS, and exposed to biotinylated goat anti-rat Ig (Dako) for 30 minutes. The sections were then rinsed with TBS, stained with the ABC-AP and fuchsin reagents (both from Dako), rinsed with water, and counterstained with hematoxylin for 2 minutes. […]

[2] = molecular target: T1, CCR1 (Homo sapiens, UniProt P32246); test: Competition binding with 125I-MIP-1α on L1.2-CCR1 cells; parameters: endogenous in cells; host or cells: human CD14+ monocytes from buffy coats
T1 sequence (P32246 1-355): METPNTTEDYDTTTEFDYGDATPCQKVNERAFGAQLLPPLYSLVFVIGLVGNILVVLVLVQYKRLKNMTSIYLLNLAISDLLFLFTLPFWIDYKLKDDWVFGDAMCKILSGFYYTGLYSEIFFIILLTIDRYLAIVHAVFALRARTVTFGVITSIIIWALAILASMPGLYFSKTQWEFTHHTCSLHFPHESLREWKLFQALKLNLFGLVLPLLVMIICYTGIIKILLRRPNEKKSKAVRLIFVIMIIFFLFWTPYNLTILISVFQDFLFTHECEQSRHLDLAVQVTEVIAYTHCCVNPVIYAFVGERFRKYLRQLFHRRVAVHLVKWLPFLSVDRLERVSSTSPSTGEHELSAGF
Method: Binding assay. Competition binding studies were conducted using monocytes, L1.2-CCR1 or L1.2-FPRL1 cells. Cells were incubated for 3 hr at 4° C. with ^125I-MIP-1α (final concentration ˜0.05 nM) or ^125I-WKYMVm (final concentration ˜0.01 nM) in buffer (25 mM HEPES, 140 mM NaCl, 1 mM CaCl2, 5 mM MgCl2 and 0.2% BSA, adjusted to pH 7.1) in the presence of increasing amounts of unlabeled chemokine. Reactions were aspirated onto PEI-treated GF/B glass filters using a cell harvester (Packard). Filters were washed twice (25 mM HEPES, 500 mM NaCl, 1 mM CaCl2, 5 mM MgCl2, adjusted to pH 7.1). Scintillant (MicroScint-10; 35 μl) was added to the filters and counted in a Packard Topcount scintillation counter. Data were analyzed and plotted using Prism (GraphPad Software, San Diego, Calif.).

[3] = molecular target: T2, FPRL1 (Homo sapiens, UniProt P25090); test: Functional assays on FPRL1 (receptor signaling and chemotaxis); format: cell-based; parameters: endogenous in cells; host or cells: human CD14+ monocytes from buffy coats
T2 sequence (P25090 1-351): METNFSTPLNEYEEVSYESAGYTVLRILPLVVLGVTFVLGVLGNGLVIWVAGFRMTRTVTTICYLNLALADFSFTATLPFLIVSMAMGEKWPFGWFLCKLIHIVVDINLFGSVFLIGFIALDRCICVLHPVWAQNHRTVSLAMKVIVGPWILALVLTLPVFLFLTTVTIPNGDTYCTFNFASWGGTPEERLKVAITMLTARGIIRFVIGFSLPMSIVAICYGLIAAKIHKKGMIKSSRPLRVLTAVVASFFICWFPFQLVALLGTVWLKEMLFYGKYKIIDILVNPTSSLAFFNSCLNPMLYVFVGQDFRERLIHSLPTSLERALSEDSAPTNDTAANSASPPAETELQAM
Method: Receptor signaling assay. For individual measurements, cells were loaded for 45 min at room temperature with 2 μM indo-1/AM (Invitrogen, Carlsbad Calif.) in culture medium, then washed with 10 ml PBS and resuspended at 10^6 cells/ml in HBSS containing 0.1% BSA. Cytosolic calcium levels were determined using a Photon Technology International fluorimeter (excitation at 350 nm, ratio of dual emission at 400 and 490 nm). For measuring calcium dose responses, cells were analyzed with a Fluorometric Imaging Plate Reader 384 (FLIPR^384) (Molecular Devices, Sunnyvale, Calif.). Cells were loaded for 1 hr at 37° C. with 5 μM fluo-4 in HBSS with 0.1% BSA, then washed, transferred to black-wall 96-well plates, and subsequently excited at 505 nm with emission recorded at 530 nm with a standard protocol provided by the manufacture. Cells were stimulated with agonists 20 s after the monitoring of fluorescence began. Data were analyzed and plotted in arbitrary units of fluorescence using Prism. To ensure that responses were specific to FPRL1, we utilized a selective small-molecule antagonist of human FPRL1, generated by ChemoCentryx, which was optimized from a high throughput compound library screening approach.
Chemotaxis assays. L1.2-CCR1 and L1.2-FPRL1 transfectants, monocytes and neutrophils were collected by centrifugation and resuspended in HBSS with 0.1% BSA. The assays were performed in 96-well ChemoTx® microplates (Neuroprobe, Rockville, Md.). Chemokines were diluted in HBSS with 0.1% BSA and added to the lower wells (final volume 29 μL), then 20 μL of cell suspension (5×10^6 cells/mL for monocytes; 2.5×10^6 cells/mL for neutrophils) were added to the polycarbonate filters (5 μm pore size for monocytes and FPRL1 transfectants; 3 μm pore size for neutrophils). After incubation for 90 min (37° C., 100% humidity, 5% CO2), the filters were removed and the cells that migrated into the lower chamber were quantified by using the CyQuant cell proliferation assay kit (Molecular Probes, Oreg.).

Sequence: MLWRRKIGPQMTLSHAAG [SHAAGtide]
- mice with recruitment of leukocytes (primarily neutrophils) into the subcutis region of the dermis [1]: 6 of 6
- inhibition of 125I-MIP-1α binding [2]: unable to inhibit binding; also recorded: does not bind CCR1
- fold more potent than all other natural agents posited to act on FPRL1 [3]: 50 to 100 fold
- EC50 ([3]; isolated peptide): 10 to 30 nM
- potency and efficacy versus other purported natural FPRL1 ligands (SAA, beta-amyloid protein 42, lipoxin A4, fMLP) ([3]; receptor signaling and chemotaxis assays): more potent and efficacious
